Results on five compounds are retold here after ChEMBL document CHEMBL5537115, “New broad-spectrum and potent antibacterial agents with dual-targeting mechanism: Promoting FtsZ polymerization and disrupting bacterial membranes” (Eur J Med Chem, 2024).

Calls of active or inactive are those of the source. The rule behind the calls is not given here.

In assay [1] the test system is Streptococcus pyogenes. Put plainly: Antibacterial activity against erythromycin-susceptible Streptococcus pyogenes 1 assessed as bacterial growth inhibition incubated for 20 hrs by CLSI based broth microdilution method. In kind it is functional.
Assay [2] deals with Acinetobacter baumannii. Put plainly: Selectivity ratio of MBC for Acinetobacter baumannii ATCC19606 to MIC for Acinetobacter baumannii ATCC19606. Format: functional.
Assay [3] has as its system Acinetobacter baumannii. Put plainly: Antibacterial activity against Acinetobacter baumannii ATCC19606 incubated for 18 to 24 hrs. In kind it is functional. Conditions: time 18-24 hrs.
Assay [4] concerns Staphylococcus aureus. Put plainly: Antibacterial activity against erythromycin-susceptible Staphylococcus aureus ATCC25923 incubated for 18 to 24 hrs. Format: functional. Conditions: time 18-24 hrs.
A further assay has as its system Bacillus pumilus. Put plainly: Antibacterial activity against penicillin-susceptible Bacillus pumilus CMCC63202 assessed as bacterial growth inhibition incubated for 20 hrs by CLSI based broth microdilution method. Format: functional.
For assay [5], the system named is Enterococcus faecalis. Put plainly: Antibacterial activity against vancomycin-resistant Enterococcus faecalis ATCC51299 assessed as bacterial growth inhibition incubated for 20 hrs by CLSI based broth microdilution method. In kind it is functional.
Assay [6] relates to Staphylococcus aureus. Put plainly: Antibacterial activity against erythromycin-susceptible Staphylococcus aureus ATCC25923 assessed as bacterial growth inhibition incubated for 20 hrs by CLSI based broth microdilution method. In kind it is functional.
Assay [7] concerns Enterococcus faecium. Put plainly: Antibacterial activity against vancomycin-resistant Enterococcus faecium ATCC51559 assessed as bacterial growth inhibition incubated for 20 hrs by CLSI based broth microdilution method. In kind it is functional.
Assay [8] relates to Enterococcus faecium. Put plainly: Antibacterial activity against vancomycin-susceptible Enterococcus faecium ATCC19434 assessed as bacterial growth inhibition incubated for 20 hrs by CLSI based broth microdilution method. Format: functional. A general note: Dilution methods test growth across graded concentrations, often in twofold steps.
In a further assay the test system is Klebsiella pneumoniae. Put plainly: Antibacterial activity against Klebsiella pneumoniae ATCC BAA-1902 assessed as bacterial growth inhibition incubated for 20 hrs by CLSI based broth microdilution method. Format: functional.
In assay [9] the test system is Staphylococcus aureus. Put plainly: Antibacterial activity against Staphylococcus aureus clinical isolate assessed as bacterial growth inhibition incubated for 20 hrs by CLSI based broth microdilution method. In kind it is functional.
The subject of assay [10] is Escherichia coli. Put plainly: Antibacterial activity against penicillin-susceptible Escherichia coli ATCC25922 assessed as bacterial growth inhibition incubated for 20 hrs by CLSI based broth microdilution method. Format: functional.
Assay [11] has as its system Staphylococcus aureus. Put plainly: Antibacterial activity against penicillin-resistant Staphylococcus aureus ATCC31007 assessed as bacterial growth inhibition incubated for 20 hrs by CLSI based broth microdilution method. In kind it is functional.
Assay [12] relates to Enterococcus faecalis. Put plainly: Antibacterial activity against vancomycin-susceptible Enterococcus faecalis ATCC29212 assessed as bacterial growth inhibition incubated for 20 hrs by CLSI based broth microdilution method. Format: functional.
Assay [13] has as its system Streptococcus pyogenes. Put plainly: Antibacterial activity against erythromycin-resistant Streptococcus pyogenes 2 clinical isolate assessed as bacterial growth inhibition incubated for 20 hrs by CLSI based broth microdilution method. Format: functional.
The subject of assay [14] is Acinetobacter baumannii. Put plainly: Antibacterial activity against Acinetobacter baumannii ATCC19606 assessed as bacterial growth inhibition incubated for 20 hrs by CLSI based broth microdilution method. In kind it is functional.
Assay [15] deals with Staphylococcus aureus. Put plainly: Antibacterial activity against methicillin-resistant Staphylococcus aureus ATCC43300 assessed as bacterial growth inhibition incubated for 20 hrs by CLSI based broth microdilution method. In kind it is functional.
The subject of assay [16] is Bacillus subtilis. Put plainly: Antibacterial activity against penicillin-susceptible Bacillus subtilis ATCC9372 assessed as bacterial growth inhibition incubated for 20 hrs by CLSI based broth microdilution method. Format: functional.
The subject of assay [17] is Staphylococcus epidermidis. Put plainly: Antibacterial activity against penicillin-resistant Staphylococcus epidermidis clinical isolate assessed as bacterial growth inhibition incubated for 20 hrs by CLSI based broth microdilution method. In kind it is functional.
Assay [18] concerns Staphylococcus aureus. Put plainly: Selectivity ratio of MBC for Staphylococcus aureus clinical isolate to MIC for Staphylococcus aureus clinical isolate. Format: functional.
The subject of assay [19] is Staphylococcus aureus. Put plainly: Antibacterial activity against Staphylococcus aureus clinical isolate incubated for 18 to 24 hrs. In kind it is functional. Particulars: time 18-24 hrs.
The test system of assay [20] is Staphylococcus aureus. Put plainly: Antibacterial activity against methicillin-resistant Staphylococcus aureus ATCC43300 incubated for 18 to 20 hrs. Conditions: time 18-20 hrs. Format: functional.
Assay [21] has as its system Bacillus subtilis. Put plainly: Selectivity ratio of MBC for penicillin-susceptible Bacillus subtilis ATCC9372 to MIC for penicillin-susceptible Bacillus subtilis ATCC9372. Format: functional.
The subject of assay [22] is Bacillus subtilis. Put plainly: Antibacterial activity against penicillin-susceptible Bacillus subtilis ATCC9372 incubated for 18 to 24 hrs. Conditions: time 18-24 hrs. Format: functional.
The subject of assay [23] is Staphylococcus aureus. Put plainly: Selectivity ratio of MBC for methicillin-resistant Staphylococcus aureus ATCC43300 to MIC for methicillin-resistant Staphylococcus aureus ATCC43300. In kind it is functional.
In assay [24] the test system is Escherichia coli. Put plainly: Antibacterial activity against wild-type Escherichia coli BW25113 assessed as bacterial growth inhibition incubated for 20 hrs by CLSI based broth microdilution method. In kind it is functional.
The test system of assay [25] is Staphylococcus aureus. Put plainly: Selectivity ratio of MBC for erythromycin-susceptible Staphylococcus aureus ATCC25923 to MIC for erythromycin-susceptible Staphylococcus aureus ATCC25923. Format: functional.
The subject of assay [26] is Staphylococcus aureus. Put plainly: Effect on proton gradient of cytoplasmic membrane in Staphylococcus aureus ATCC25923 at 1 ug/ml measured after 20 mins by diSC35 dye based analysis. Conditions: Cytoplasm membrane, dose 1.0 µg/ml. Format: functional, organism-based.

One may read the MIC as the least concentration at which growth counts as inhibited. Usually MBC stands for the lowest tested concentration that kills the bacteria rather than only halting them. Higher therefore signals weaker bactericidal potency. With `Cc1ccccc1-c1c[n+](C)c(-c2ccc(C(C)(C)C)cc2)cc1/C=C/c1ccc(N(C)C)cc1.[I-]`, the MIC amounted to 2 µg/mL with Streptococcus pyogenes [1]; 0.5 µg/mL with Bacillus pumilus; 2 µg/mL with Enterococcus faecalis [5]; 0.125 µg/mL in the assay with Staphylococcus aureus [6]; 0.5 µg/mL with Enterococcus faecium [7]; 1 µg/mL in the assay on Enterococcus faecium [8]. For the same compound, the MIC in the assay on Klebsiella pneumoniae was 16 µg/mL; with Staphylococcus aureus [9] it was 0.25 µg/mL; with Escherichia coli [10], 4 µg/mL; with Staphylococcus aureus [11], 1 µg/mL; with Enterococcus faecalis [12], 2 µg/mL; in the assay on Streptococcus pyogenes [13], 2 µg/mL. The minimal inhibitory concentration (MIC) with Acinetobacter baumannii [14] came to 1 µg/mL; in the assay on Staphylococcus aureus [15] it was 0.5 µg/mL; with Bacillus subtilis [16] it was 0.5 µg/mL; in assay [17], 1 µg/mL; with Escherichia coli [24] it was 2 µg/mL. Moreover, the Ratio with Acinetobacter baumannii [2] is 2; with Staphylococcus aureus [18], 4; in the assay on Bacillus subtilis [21] it was 4; in the assay with Staphylococcus aureus [23], 1; with Staphylococcus aureus [25], 2. Moreover, the MBC turned out to be 2 µg/mL in the assay on Acinetobacter baumannii [3]; 0.25 µg/mL with Staphylococcus aureus [4]; 1 µg/mL against Staphylococcus aureus [19]; 0.5 µg/mL in the assay on Staphylococcus aureus [20]; 2 µg/mL in the assay on Bacillus subtilis [22].

For the compound `C[n+]1cc2c3c(ccc2c2ccc4cc5c(cc4c21)OCO5)OCO3`, the MIC in the assay on Streptococcus pyogenes [1] was 2 µg/mL; with Bacillus pumilus it was 4 µg/mL; in the assay with Enterococcus faecalis [5], 32 µg/mL; in the assay on Staphylococcus aureus [6], 4 µg/mL; in the assay with Enterococcus faecium [7], 32 µg/mL; with Enterococcus faecium [8] it was 64 µg/mL. Besides, the MIC worked out at 64 µg/mL in the assay on Klebsiella pneumoniae; 8 µg/mL in the assay with Staphylococcus aureus [9]; 32 µg/mL in the assay with Escherichia coli [10]; 16 µg/mL in the assay on Staphylococcus aureus [11]; 16 µg/mL with Enterococcus faecalis [12]; 2 µg/mL in the assay with Streptococcus pyogenes [13]. The MIC in the assay with Acinetobacter baumannii [14] turned out to be 64 µg/mL; with Staphylococcus aureus [15], 8 µg/mL; in the assay with Bacillus subtilis [16], 4 µg/mL; in [17], 8 µg/mL; in the assay on Escherichia coli [24], 64 µg/mL. The MBC was more than 64 µg/mL with Acinetobacter baumannii [3]; more than 64 µg/mL with Staphylococcus aureus [4]; more than 64 µg/mL in the assay on Staphylococcus aureus [19]; more than 64 µg/mL against Staphylococcus aureus [20]; 64 µg/mL with Bacillus subtilis [22]. The values for the Ratio in the assay on Bacillus subtilis [21] and in the assay with Staphylococcus aureus [25] were 16 and more than 32, respectively.

On to `Cc1cc(-c2ccccc2)[n+](C)cc1-c1ccccc1`, for which the outcome in the assay with Staphylococcus aureus [26] was inactive.

On to `C[n+]1ccc(/C=C/c2ccccc2)c(-c2ccccc2)c1`, for which the outcome in the assay on Staphylococcus aureus [26] was inactive.

With `CN(C)c1ccc(/C=C/c2cc(-c3ccc(C(C)(C)C)cc3)[n+](C)cc2-c2ccccc2)cc1.[I-]`, the MIC in the assay with Streptococcus pyogenes [1] turned out to be 2 µg/mL; in the assay on Bacillus pumilus, 0.25 µg/mL; in the assay with Enterococcus faecalis [5], 2 µg/mL; in the assay with Staphylococcus aureus [6], 0.125 µg/mL; in the assay on Enterococcus faecium [7] it was 2 µg/mL; with Enterococcus faecium [8], 2 µg/mL. The MIC with Klebsiella pneumoniae came to 8 µg/mL; with Staphylococcus aureus [9] it was 0.125 µg/mL; in the assay with Escherichia coli [10], 4 µg/mL; in the assay on Staphylococcus aureus [11] it was 0.5 µg/mL; in the assay with Enterococcus faecalis [12], 2 µg/mL; in the assay on Streptococcus pyogenes [13], 2 µg/mL. For the same compound, the MIC with Acinetobacter baumannii [14] was 1 µg/mL; in the assay with Staphylococcus aureus [15] it was 0.25 µg/mL; in the assay on Bacillus subtilis [16], 0.125 µg/mL; in assay [17], 1 µg/mL; in the assay with Escherichia coli [24] it was 8 µg/mL. The Ratio in the assay on Acinetobacter baumannii [2] is 4; in the assay with Staphylococcus aureus [18] it was 4; with Bacillus subtilis [21], 16; in the assay with Staphylococcus aureus [25], 8. Moreover, the MBC in the assay with Acinetobacter baumannii [3] was 4 µg/mL; against Staphylococcus aureus [4], 1 µg/mL; with Staphylococcus aureus [19], 1 µg/mL; in the assay with Staphylococcus aureus [20], 1 µg/mL; in the assay on Bacillus subtilis [22], 2 µg/mL.
